A word on the IC50: it is the point on the concentration scale where inhibition reaches its midpoint.

Converted amounts (≈) assume the structure as drawn. “And” between values parts separate entries of the source, which are not always exact repeats. Equal values may be shown once. Read-outs that look alike come from different tables or passages of the source.

Experiment [1] relates to NB4, U937, Raji and RPMI-8226 cells. The experiment can be described thus: In vitro cytotoxicity, whole CD13 cell panel. The note with it: for IC50: Homo sapiens. From the text: (§1) All tumor cell lines used in this study were obtained from the American Type Culture Collection (ATCC), unless otherwise indicated; BT-474 (ATCC HTB-20, Breast Ductal Carcinoma), SK-BR-3 (ATCC HTB-30, Breast Adenocarcinoma) and HCC-1954 (ATCC CRL-2338, Breast Ductal Carcinoma), all HER2+; MDA-MB-231 (ATCC HTB-26, Breast Adenocarcinoma) and MCF-7 (ATCC HTB-22 Breast Adenocarcinoma, pleural effusion), all HER2-; SK-OV-3 (ATCC HTB-77, Ovary Adenocarcinoma), HER2+; NB-4 (Acute Promyelocytic Leukemia, APL, CD13+, M. Lanotte et al. (1991) NB4, a maturation inducible cell line with t(15;17) marker isolated from a human acute promyelocytic leukemia (M3). Blood 77, 1080-1086), (CD13+) and U937 (ATCC CRL-1 593.2, Histiocytic Lymphoma, CD13+ and CD4+); Raji (ATCC CCL-86, Burkitt's Lymphoma) (CD13−, CD20+, CD5−, and CD4−); RPMI-8226 (ATCC CRM-CCL-155, Multiple Myeloma) (CD13−, CD20−, CD5− and CD4−); Karpas-299 (DSMZ ACC-31, Non-Hodgkin's Lymphoma) (CD20−, CD5+, and CD4+); MOLT-4 (ATCC CRL-1 582, Acute Lymphoblastic Leukemia, CD5+). In addition, the two Raji cell (ATCC CCL-86, Burkitt's Lymphoma) clones used in this study Raji-clone #10 (high CD5 expression) and Raji-clone18 (null CD5 expression), were provided by Dr. Juan M. Zapata (Instituto de Investigaciones Biomedicas “Alberto Sols”, CSIC-UAM, Madrid, Spain). Cells were maintained at 37° C., 5% CO 2 and 95% humidity in Dulbecco's Modified Eagle's Medium (DMEM) (for MCF and MDA-MB-231 cells), RPMI-1640 (for SK-BR-3, HCC-1954, NB-4, U937, Raji, RPMI-8226, Karpas-299, MOLT-4, Raji-clone #10 and Raji-clone #18 cells), RPMI-1640+1% ITS (for BT-474 cells) or McCOyS (for SK-OV-3 cells), all media supplemented with 10% Fetal Calf Serum (FCS) and 100 units/mL penicillin and streptomycin.
For suspension cells: A standard metabolic assay using MTT (3-(4,5-Dimethylthiazol-2-yl)-2,5-diphenyltetrazolium bromide) was adapted for quantitative measurement of cell growth and cytotoxicity, as described in T. Mosmann (1983) Rapid colorimetric assay for cellular growth and survival: Application to proliferation and cytotoxicity assays. J. Immunol. Meth., 65, 55-63. Briefly, MTT solution was added to the cell cultures at a final concentration of 0.5 mg/mL, and incubated for 1 to 4 hours at 37° C. until formazan crystals are formed. Culture medium is carefully removed from the cell cultures and formazan crystals resuspended in 100 μl DMSO. After mixing to assure solubilization, the quantity of formazan (presumably directly proportional to the number of viable cells) is measured by recording changes in absorbance at 570 nm using a plate reading spectrophotometer. Cell survival was expressed as percentage of control, untreated cell survival.
(§2) The IC50 value refers to the concentration of compound inducing a 50% of cell death as compared to the control cell survival.
The in vitro cytotoxic activity of ADC9 along with the parent cytotoxic Compounds 1 and 4, was evaluated against different human tumor cell lines expressing or not the CD13 receptor, including NB4 and U937 (CD13 positive cells) and Raji and RPMI-8226 (CD13 negative cells). Standard dose-response (DR) curves for 72 hours were performed.

For experiment [2], the system named is Raji cell clones #10 (high CD5) and #18 (null CD5). The experiment in a line: In vitro cytotoxicity, the two Raji cell clones. The experiment is classed as cell-based, human. The conditions noted are these: from mean IC50. The protocol:
J. Immunol. Meth., 65, 55-63.
[…] dose-response (DR) curves for 72 hours were performed.

A further experiment relates to SK-BR-3 cells. The experiment in a line: In vitro cytotoxicity, SRB assay, 72 h dose-response. The experiment is classed as cell-based. The conditions noted are these: Homo sapiens, SK-BR-3, 72 h. (In SRB staining, fixed cells bind dye roughly in proportion to their protein.)
For experiment [3], the system named is BT-474, HCC-1954, SK-BR-3, MDA-MB-231, MCF-7 and SK-OV-3 cells. The experiment in a line: In vitro cytotoxicity, whole cell panel of Bioactivity Example 1. The experiment is classed as cell-based. The conditions noted are these: Homo sapiens.
Text: as §1
For adherent cells: A colorimetric assay using sulforhodamine B (SRB) was adapted for quantitative measurement of cell growth and cytotoxicity, as described in V. Vichai and K. Kirtikara (2006) Sulforhodamine B colorimetric assay for cytotoxicity screening. Nature Protocols, 1, 1112-1 116. Briefly, cells were seeded in 96-well microtiter plates and allowed to stand for 24 hours in drug-free medium before treatment with vehicle alone or the indicated compounds for 72 hours. For quantification, cells were washed twice with phosphate buffered saline (PBS), fixed for 15 min in 1% glutaraldehyde solution, rinsed twice with PBS, stained in 0.4% SRB-1% acetic acid solution for 30 min, rinsed several times with 1% acetic acid solution and air-dried. SRB was then extracted in 10 mM trizma base solution and the optical density measured at 490 nm in a microplate spectrophotometer. Cell survival was expressed as percentage of control, untreated cell survival. […]

The subject of a further experiment is HCC-1954 cells. The experiment can be described thus: In vitro cytotoxicity, SRB assay, 72 h dose-response. The experiment is classed as cell-based. The note with it: Homo sapiens, HCC1954, 72 h. The text has this: (§3) Nature Protocols, 1, 1112-1 116.
Another experiment has as its system BT-474 cells. The description is as above. The experiment is classed as cell-based. The note with it: Homo sapiens.
Text: as §3

The next experiment deals with SK-OV-3 cells. The description is as above. The note with it: Homo sapiens. The experiment is classed as cell-based.
Text: as §3

Experiment [4] deals with HCC-1954, SK-BR-3, MDA-MB-231 and MCF-7 cells. The experiment in a line: In vitro cytotoxicity, whole breast cancer cell panel.
Text: as §1
For adherent cells: A colorimetric assay using sulforhodamine B (SRB) was adapted for quantitative measurement of cell growth and cytotoxicity, as described in V. Vichai and K. Kirtikara (2006) Sulforhodamine B colorimetric assay for cytotoxicity screening. Nature Protocols, 1, 1112-1 116. Briefly, cells were seeded in 96-well microtiter plates and allowed to stand for 24 hours in drug-free medium before treatment with vehicle alone or the indicated compounds for 72 hours. For quantification, cells were washed twice with phosphate buffered saline (PBS), fixed for 15 min in 1% glutaraldehyde solution, rinsed twice with PBS, stained in 0.4% SRB-1% acetic acid solution for 30 min, rinsed several times with 1% acetic acid solution and air-dried. SRB was then extracted in 10 mM trizma base solution and the optical density measured at 490 nm in a microplate spectrophotometer. Cell survival was expressed as percentage of control, untreated cell survival.
as §2
Standard dose-response (DR) curves for 72 hours were performed.

The test system of a further experiment is Raji cells. The experiment in a line: In vitro cytotoxicity, MTT assay, 72 h dose-response. The experiment is classed as cell-based, human. The note with it: CD13−, CD20+, CD5−, CD4−.
Where [5] appears, read: read-out: IC50 values across the different cell lines tested (range).
Setting [6] is: read-out: mean IC50 value across the whole cell panel.

Procedure for Raji cells: Briefly, MTT solution was added to the cell cultures at a final concentration of 0.5 mg/mL, and incubated for 1 to 4 hours at 37° C. until formazan crystals are formed. Culture medium is carefully removed from the cell cultures and formazan crystals resuspended in 100 μl DMSO. […] Cell survival was expressed as percentage of control, untreated cell survival.
Text for SK-BR-3 cells: All tumor cell lines used in this study were obtained from the American Type Culture Collection (ATCC), unless otherwise indicated; BT-474 (ATCC HTB-20, Breast Ductal Carcinoma), SK-BR-3 (ATCC HTB-30, Breast Adenocarcinoma) and HCC-1954 (ATCC CRL-2338, Breast Ductal Carcinoma), all HER2+; MDA-MB-231 (ATCC HTB-26, Breast Adenocarcinoma) and MCF-7 (ATCC HTB-22 Breast Adenocarcinoma, pleural effusion), all HER2-; SK-OV-3 (ATCC HTB-77, Ovary Adenocarcinoma), HER2+; NB-4 (Acute Promyelocytic Leukemia, APL, CD13+, M. Lanotte et al. (1991) NB4, a maturation inducible cell line with t(15;17) marker isolated from a human acute promyelocytic leukemia (M3). […] Cells were maintained at 37° C., 5% CO 2 and 95% humidity in Dulbecco's Modified Eagle's Medium (DMEM) (for MCF and MDA-MB-231 cells), RPMI-1640 (for SK-BR-3, HCC-1954, NB-4, U937, Raji, RPMI-8226, Karpas-299, MOLT-4, Raji-clone #10 and Raji-clone #18 cells), RPMI-1640+1% ITS (for BT-474 cells) or McCOyS (for SK-OV-3 cells), all media supplemented with 10% Fetal Calf Serum (FCS) and 100 units/mL penicillin and streptomycin.
For adherent cells: A colorimetric assay using sulforhodamine B (SRB) was adapted for quantitative measurement of cell growth and cytotoxicity, as described in V. Vichai and K. Kirtikara (2006) Sulforhodamine B colorimetric assay for cytotoxicity screening. […] Briefly, cells were seeded in 96-well microtiter plates and allowed to stand for 24 hours in drug-free medium before treatment with vehicle alone or the indicated compounds for 72 hours. For quantification, cells were washed twice with phosphate buffered saline (PBS), fixed for 15 min in 1% glutaraldehyde solution, rinsed twice with PBS, stained in 0.4% SRB-1% acetic acid solution for 30 min, rinsed several times with 1% acetic acid solution and air-dried. SRB was then extracted in 10 mM trizma base solution and the optical density measured at 490 nm in a microplate spectrophotometer. Cell survival was expressed as percentage of control, untreated cell survival.

As to `COC1=CC[C@@H]([C@@H](C)/C=C(C)/C=C\C=C/C(=O)N[C@H](C(=O)N/C=C\C[C@H](C/C=C(\C)Cl)OC(=O)NCCCNC(=O)CCCCCN2C(=O)C=CC2=O)C(C)(C)C)OC1=O` [Compound 1], the IC50 was 0.0008 µg/mL to 0.0063 µg/mL and 0.94 nM to 7.3 nM in experiment [1] (setting [5]); 0.0028 µg/mL and 3.3 nM in [1] (setting [6]); 0.00089 µg/mL and 1.04 nM with SK-BR-3 cells (HER2+, 72 h, read-out: IC50); 0.00089 µg/mL to 0.0064 µg/mL and 1.04 nM to 7.47 nM in [3] (read-out: IC50 values along the different cell lines tested (range)); 0.00341 µg/mL and 3.98 nM in experiment [3] (setting [6]); 0.00096 µg/mL and 1.12 nM with HCC-1954 cells (HER2+, 72 h, read-out: IC50). Besides, the IC50 is 0.0064 µg/mL and 7.47 nM in the experiment with BT-474 cells (BT-474, 72 h); 0.0057 µg/mL and 6.66 nM with SK-OV-3 cells (SK-OV-3, 72 h). The “more active in CD5 overexpressing cells (clone #10) than in CD5 null cells (clone #18)” value in [2] is reported as “around 1 log”.

As to `COC1=CC[C@@H]([C@@H](C)/C=C(C)/C=C\C=C/C(=O)N[C@H](C(=O)N/C=C\C[C@H](C/C=C(\C)Cl)OC(=O)NCCCN)C(C)(C)C)OC1=O` [Compound 4], the “mean IC50 value across the whole cell panel” value in experiment [1] (CD13+ and CD13− lines) came to 1.2 nM; in experiment [4] (four breast cell lines), 0.33 ng/mL. Besides, the IC50 in [1] (setting [5]) is 7.9e-05 µg/mL to 0.00265 µg/mL and 0.12 nM to 4 nM; in experiment [1] (setting [6]) it was 0.00084 µg/mL and 1.2 nM; in experiment [4] (Homo sapiens, read-out: mean IC50 value across the whole cell panel, four breast cell lines), 0.000197 µg/mL and 0.296 nM; in experiment [4] (read-out: mean IC50 value across the whole cell panel, four breast cell lines) it was 0.498 nM; with Raji cells, 0.00141 µg/mL; with Raji cells (read-out: IC50) it was 2.12 nM. The IC50 was 0.00265 µg/mL and 4 nM in the experiment with Raji cells (Homo sapiens, Raji, read-out: IC50); 0.000569 µg/mL and 0.857 nM in [3] (six cell lines, read-out: mean IC50 value across the whole cell panel); 0.089 to 1.7 ng/mL (≈ 0.134 to 2.56 nM) in [3] (six cell lines, two independent experiments, read-out: IC50 values along the different cell lines tested (range)); 0.00174 µg/mL and 2.62 nM in the experiment on BT-474 cells (BT-474, HER2+, 72 h, read-out: IC50); 0.00073 µg/mL and 1.1 nM in the experiment on SK-OV-3 cells (SK-OV-3, ovary, HER2+, 72 h, read-out: IC50).

As for `COC1=CC[C@@H]([C@@H](C)/C=C(C)/C=C\C=C/C(=O)N[C@H](C(=O)N/C=C\C[C@H](C/C=C(\C)Cl)OC(N)=O)C(C)(C)C)OC1=O` [Compound 40], the 50% inhibitory concentration (IC50) is 0.031 to 0.17 ng/mL (≈ 0.0511 to 0.28 nM) in experiment [1] (setting [5]); 8.6e-05 µg/mL and 0.14 nM in experiment [1] (setting [6]); 0.049 to 0.173 ng/mL in experiment [4] (Homo sapiens, read-out: IC50 values along the different cell lines tested (range)); 0.000106 µg/mL and 0.175 nM in experiment [4] (Homo sapiens, read-out: mean IC50 value across the whole cell panel); 0.000115 µg/mL and 0.000285 µg/mL in the experiment with Raji cells; 0.19 nM and 0.47 nM with Raji cells (read-out: IC50). Further, the IC50 is 4.9e-05 µg/mL and 0.081 nM in the experiment on SK-BR-3 cells; 7.1e-05 µg/mL and 0.116 nM in the experiment with HCC-1954 cells.

These data come from patent US12410148B2, “Antibody drug conjugates” (Pharma Mar, S.A., priority 2013, dated 2025).
